The structures appear in SMILES notation. ≈ marks a conversion by molar mass, not a printed value.

Test [1] relates to RAW264.7. The test is described as follows: Cytotoxicity against mouse RAW264.7 cells. In kind it is cell-based.
Test [2] has as its system RAW264.7. Briefly: Antiinflammatory activity in mouse RAW264.7 cells assessed as inhibition of LPS-induced nitric oxide production. In kind it is functional, cell-based.

As to `C=C[C@@](C)(O)[C@H]1C[C@@H]2[C@@]3(C)CCCC(C)(C)[C@@H]3CC[C@@]2(C)O1`, the IC50 (usually the point on the concentration scale where inhibition reaches its midpoint) came to 0.6 µg/mL (≈ 1.96 µM) in test [1] and 1.9 µg/mL (≈ 6.2 µM) in test [2]. As to `C=C[C@@](C)(O)CC[C@H]1C(=C)CC[C@H]2C(C)(C)CCC[C@]12C` [MANOOL], the values for the IC50 in test [1] and in test [2] were 32.3 µg/mL (≈ 111 µM) and 9.6 µg/mL (≈ 33 µM), respectively. Consider `CC1=CC(O)(C[C@@H](C)C2=CC[C@@]3(C)C4=C(CC[C@]23C)[C@@]2(C)CCC(=O)C(C)(C)[C@@H]2CC4)OC1=O` (some centres not stated) [NEOABIESLACTONE E], for which the values for the IC50 in test [1] and in test [2] were 20 µg/mL (≈ 42.9 µM) and 9.1 µg/mL (≈ 19.5 µM), respectively. In the case of `N=C(N)NN` [PIMAGEDINE], in test [2], the IC50 is 3.4 µg/mL (≈ 45.9 µM).

For the origin of these results see ChEMBL document CHEMBL1152926, “Terpenoid constituents of Abies chensiensis with potential anti-inflammatory activity” (J Nat Prod, 2009).
